Holding throughout (assay type): cell-based
For assay [1], the system named is Staphylococcus aureus SG 511. Nature of the assay: Agar diffusion test (hole-test). As to conditions: SG511, 18-20 hours at 37° C., read-out: MIC, A.D.T., Staphylococcus aureus SG 511. On the procedure: (§1) The inhibitory effect on bacteria and fungi was examined by the serial dilution test and the agar diffusion test (hole-test). As bacteria were used: Staphylococcus aureus SG 511, Streptococcus Aronson, Streptococcus pyogenes At CC 86 68; as fungi: Candida albicans AT CC 10231, Trichophyton mentagrophytes AT CC 9129 and Aspergillus niger.
1. Meat extract agar: for St. aureus SG 511
(§2) The age of the primary cultures is 24 hours for bacteria and 14 days for fungi. The standardization of the suspension of microorganisms is effected using a photometer according to Eppendorf (test tube .phi.14 mm, filter 546 nm) and a suspension for comparison consisting of barium sulfate, this suspension being created by addition of 3.0 ml of 1% barium chloride solution to 97 ml of 1% sulfuric acid. After the standardization St. aureus SG 511 was diluted 1:1000 and Sc. pyogenes and Aronson 1:100 by means of sodium chloride solution. The fungi were used in an undiluted state.
(§3) 40 mgm of the substance were put into a 10 ml measuring flask and filled up to the mark with the solvent (corresponds to a dilution of 1:250=4000 μg/ml).
(§4) The dilutions to the concentrations under test were effected with distilled water or the respective solvent.
(§5) 19 ml of the nutrient medium were filled into sterile Petri dishes of a diameter of 8 cm and dried. Subsequently the agar plates were charged with 4 ml of seed agar. 100 ml of seed agar contain 1.25 ml of the suspension of microorganisms, an agar plate thus containing 0.05 ml of the suspension of microorganisms. After solidification of the agar, 5 holes of a diameter of 5 mm were punched into the plates and filled with 0.05 ml of the correspondingly concentrated substance solution.
(§6) Control tests merely using the solvent are to be carried out simultaneously.
(§7) Bacteria were incubated at 37° C. for 18-20 hours and fungi at 27° C. for 7 days.
(§8) The diameter of the area of inhibition in mm was measured after having deducted the diameter of the hole.

Assay [2] concerns Streptococcus Aronson. The assay can be described thus: Agar diffusion test (hole-test). The note with it: 18-20 hours at 37° C., read-out: MIC, A.D.T., Streptococcus Aronson. On the procedure:
as §1
(§9) 2. Glucose agar: for Sc. Aronson and St. pyogenes Recipe see meat extract agar. After sterilization 1 weight percent of glucose is added as a sterile 50% solution.
as §2, §3, §4, §5, §6, §7, §8
On the technique in general: A growth-free zone around the sample is the usual read-out of agar diffusion tests.

Assay [3] has as its system Streptococcus pyogenes At CC 86 68. The assay can be described thus: Agar diffusion test (hole-test). As to conditions: ATCC8668, 18-20 hours at 37° C., read-out: MIC, A.D.T., Streptococcus pyogenes. On the procedure: as §1, §9, §2, §3, §4, §5, §6, §7, §8
Assay [4] deals with Streptococcus Aronson. Nature of the assay: Serial dilution test. As to conditions: Streptococcus, 18-20 hours at 37° C., read-out: MIC, S.D.T., Streptococcus Aronson. On the procedure:
as §1
(§10) 2. Glucose broth: for Sc. Aronson and St. pyogenes Recipe see meat extract broth. After sterilization 1 weight percent of glucose is added as a sterile 50% solution.
(§11) The age of the primary cultures is 24 hours for bacteria and 14 days for fungi. The standardization of the suspension of microorganisms is effected using a photometer according to Eppendorf (test tube .phi.14 mm, filter 546 nm) and a suspension for comparison consisting of barium sulfate, this suspension being created by adition of 3.0 ml of 1% barium chloride solution to 97 ml of 1% sulfuric acid. After the standardization the bacteria were further diluted to a concentration of 1:1000 by means of sodium chloride solution, the fungi were used in an undiluted state.
(§12) 40 mgm of the substance were put into a 10 ml measuring flask and filled up to the mark with the solvent (corresponds to a dilution of 1:250=4000 μg/ml). The further dilution series was standardized with distilled water or the respective solvent and the following substance concentrations were prepared: 1000; 250; 62.5 μg/ml.
(§13) The tubes were filled with 4.9 ml of the corresponding liquid nutrient medium. Then 0.1 ml of the substance dilution prepared above was added to each tube, so that the mentioned final concentrations were present. Finally each tube was inoculated with 0.1 ml of the standardized suspension of microorganisms. Control tests merely using the solvent are to be carried out simultaneously.
as §7
(§14) The measurement is carried out macroscopically defining the minimal inhibitory concentration (the lowest still microbiostatically effective concentration).

For assay [5], the system named is Streptococcus pyogenes At CC 86 68. Nature of the assay: Serial dilution test. The note with it: Streptococcus pyogenes, ATCC8668, 18-20 hours at 37° C., read-out: MIC, S.D.T., Streptococcus pyogenes. On the procedure: as §1, §10, §11, §12, §13, §7, §14
The next assay deals with Corynebacterium acnes. The assay can be described thus: Serial dilution test for Corynebacterium acnes. As to conditions: for MIC: Cutibacterium acnes, 37° C. for 48 hours, read-out: MIC, S.D.T., Corynebacterium acnes. On the procedure: Serial dilution test for Corynebacterium acnes and Pityrosporum ovale Nutrient medium
For Corynebacterium acnes: thioglycolate-broth for Pityrosporum ovale: Littmann's broth, 5 ml per tube.
Suspension of microorganisms in 0.9% sodium chloride solution, standardized using a photometer according to Eppendorf by means of a suspension for comparison consisting of barium sulfate, for Corynebacterium acnes in a dilution of 1:100, for Pityrosporum ovale in an undiluted state. 0.1 ml of the suspensions was used per test tube. Dimethyl sulfoxide served as a solvent for the substances.
The suspension with Corynebacteria acnes was incubated at 37° C. for 48 hours, the suspension of Pityrosporum ovale at 27° C. for 7 days. The reading was effected by macroscopic evaluation of the growth of microorganisms and registration of the minimal inhibitory concentration.

The subject of a further assay is Aspergillus niger. The assay can be described thus: Agar diffusion test (hole-test). As to conditions: 168 h, 27° C. for 7 days, read-out: MIC, A.D.T., Aspergillus niger. On the procedure: as §1
(§15) 3. Sabouraud agar: for C. alb., Trich. ment., A. niger
as §2, §3, §4, §5, §6, §7, §8

Assay [6] relates to Candida albicans AT CC 10231. Nature of the assay: Agar diffusion test (hole-test). The note with it: ATCC10231, 168 h, 27° C. for 7 days, read-out: MIC, A.D.T., Candida albicans. As for the experimental part:
as §1, §15, §2, §3, §4, §5, §6, §7, §8

In assay [7] the test system is Trichophyton mentagrophytes AT CC 9129. The assay can be described thus: Agar diffusion test (hole-test). As to conditions: ATCC9129, 168 h, 27° C. for 7 days, read-out: MIC, A.D.T., Trichophyton mentagrophytes. On the procedure: as §1, §15, §2, §3, §4, §5, §6, §7, §8
For assay [8], the system named is Pityrosporum ovale CBS 1878. Nature of the assay: Agar diffusion test for Pityrosporum ovale CBS 1878. As to conditions: Malassezia furfur, CBS1878, 168 h, 7 days at 27° C., read-out: MIC, A.D.T., Pityrosporum ovale. As for the experimental part: Agar diffusion test for Pityrosporum ovale CBS 1878 Nutrient medium
Littmann's agar, 23 ml per Petri dish, diameter of dish 100 mm.
Suspension of microorganisms in 0.9% sodium chloride solution, standardized using a photometer according to Eppendorf by means of a suspension for comparison consisting of barium sulfate. 0.05 ml per plate were used. The test substances were dissolved in dimethyl sulfoxide. The incubation time was 7 days at 27° C.; the area of inhibition in mm was measured, 0.05 ml of the solution of the substance were used for each punch-hole of a diameter of 6 mm. The results of these tests are recorded in the following tables 1 and 2: […]

Converted amounts (≈) assume the structure as drawn. A value given as a limit tells only on which side of the number the result lay.

Usually MIC stands for the smallest concentration in the dilution series that meets the test's criterion for growth inhibition.

Turning to `CC1CCC(c2c(O)ccc(C(=O)C(F)(F)F)c2O)CC1` (centres unmarked) [H, 2,4-Dihydroxy-3-(4'-methyl)-cyclohexyl-trifluoro-acetophenone], the minimal inhibitory concentration (MIC) is at most 15.6 µg/mL in [1]; at most 15.6 µg/mL in the assay on Streptococcus Aronson [2]; at most 15.6 µg/mL in assay [3]; 1.25 µg/mL (≈ 4.14 µM) in the assay with Streptococcus Aronson [4]; 0.31 µg/mL (≈ 1.03 µM) in [5]; 1.25 µg/mL (≈ 4.14 µM) in the assay with Corynebacterium acnes. The MIC in the assay on Aspergillus niger is 62.5 µg/mL (≈ 207 µM); in assay [6] it was 1000 µg/mL (≈ 3310 µM); in assay [7], at most 15.6 µg/mL; in assay [8], 1000 µg/mL (≈ 3310 µM).
As to `COc1ccc(C(=O)C(F)(F)F)c(OC)c1` [D, 2,4-Dimethoxy-trifluoroacetophenone, reference compound], the MIC in [1] was over 4000 µg/mL; in the assay on Streptococcus Aronson [2], over 4000 µg/mL; in assay [3], over 4000 µg/mL; in the assay on Streptococcus Aronson [4] it was over 80 µg/mL; in assay [5], over 80 µg/mL; in the assay with Corynebacterium acnes, over 80 µg/mL. For the same molecule, the minimal inhibitory concentration (MIC) (with Aspergillus niger; in assay [6]; in assay [7]; in [8]) was over 4000 µg/mL in each case.
With `CCc1c(O)ccc(C(=O)C(F)(F)F)c1O` [C, 3-Ethyl-2,4-dihydroxy-trifluoroacetophenone, reference compound], the MIC in [1] came to 62.5 µg/mL (≈ 267 µM); with Streptococcus Aronson [2], 62.5 µg/mL (≈ 267 µM); in assay [3], 62.5 µg/mL (≈ 267 µM); with Streptococcus Aronson [4], 5 µg/mL (≈ 21.4 µM); in [5], 1.25 µg/mL (≈ 5.34 µM); in the assay on Corynebacterium acnes, 1.25 µg/mL (≈ 5.34 µM). In addition, the MIC was found to be 1000 µg/mL (≈ 4270 µM) with Aspergillus niger, 1000 µg/mL (≈ 4270 µM) in [6], 62.5 µg/mL (≈ 267 µM) in assay [7] and 1000 µg/mL (≈ 4270 µM) in [8].
For the molecule `CCc1cc(C(=O)C(F)(F)F)c(O)cc1O` [B, 5-Ethyl-2,4-dihydroxy-trifluoroacetophenone, reference compound], the MIC stood at 250 µg/mL (≈ 1070 µM) in assay [1]; 250 µg/mL (≈ 1070 µM) with Streptococcus Aronson [2]; 250 µg/mL (≈ 1070 µM) in [3]; 20 µg/mL (≈ 85.4 µM) in the assay on Streptococcus Aronson [4]; 20 µg/mL (≈ 85.4 µM) in [5]; 20 µg/mL (≈ 85.4 µM) in the assay on Corynebacterium acnes. Besides, the MIC was found to be 250 µg/mL (≈ 1070 µM) in the assay on Aspergillus niger, 1000 µg/mL (≈ 4270 µM) in assay [6], 250 µg/mL (≈ 1070 µM) in assay [7] and 1000 µg/mL (≈ 4270 µM) in assay [8].
Regarding `CC(C)c1c(O)ccc(C(=O)C(F)(F)F)c1O` [P, 2,4-Dihydroxy-3-isopropyl-trifluoroacetophenone], the MIC is 62.5 µg/mL (≈ 252 µM) in assay [1]; at most 15.6 µg/mL in the assay on Streptococcus Aronson [2]; 62.5 µg/mL (≈ 252 µM) in assay [3]; 1.25 µg/mL (≈ 5.04 µM) in the assay with Streptococcus Aronson [4]; 1.25 µg/mL (≈ 5.04 µM) in [5]; 5 µg/mL (≈ 20.1 µM) in the assay on Corynebacterium acnes. For the same molecule, the “Concentration with reduced growth (value in brackets), S.D.T., Corynebacterium acnes” value in the assay with Corynebacterium acnes (reduced growth at this concentration) amounted to 1.25 µg/mL.
Take `CC(C)Cc1c(O)ccc(C(=O)C(F)(F)F)c1O` [F, 2,4-Dihydroxy-3-iso-butyl-trifluoroacetophenone]: the MIC in [1] was 62.5 µg/mL (≈ 238 µM); with Streptococcus Aronson [2] it was at most 15.6 µg/mL; in assay [3], at most 15.6 µg/mL; in the assay on Streptococcus Aronson [4], 1.25 µg/mL (≈ 4.77 µM); in [5], 1.25 µg/mL (≈ 4.77 µM); with Corynebacterium acnes, 0.31 µg/mL (≈ 1.18 µM). Besides, the MIC in the assay on Aspergillus niger is 250 µg/mL (≈ 953 µM); in [6] it was 250 µg/mL (≈ 953 µM); in assay [7] it was at most 15.6 µg/mL; in assay [8], 250 µg/mL (≈ 953 µM).
For the molecule `O=C(c1ccc(O)cc1O)C(F)(F)F` [A, 2,4-Dihydroxy-trifluoroacetophenone, reference compound], the MIC is 1000 µg/mL (≈ 4850 µM) in assay [1]; 1000 µg/mL (≈ 4850 µM) with Streptococcus Aronson [2]; 80 µg/mL (≈ 388 µM) in the assay on Streptococcus Aronson [4]; 80 µg/mL (≈ 388 µM) with Corynebacterium acnes; 250 µg/mL (≈ 1210 µM) in the assay on Aspergillus niger; 1000 µg/mL (≈ 4850 µM) in [6]. For the same molecule, the values for the MIC in assay [7] and in assay [8] were 250 µg/mL (≈ 1210 µM) and 1000 µg/mL (≈ 4850 µM), respectively.

The values are drawn from patent publication US4225619A, “Substituted fluoracylresorcinols” (Boehringer Ingelheim GmBH, priority 1976, dated 1980).
